Data published in PubChem BioAssay (NCI).
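Dose response: 5 concentrations. Exposure: 48 h. Format: 96-well plates. Endpoint: linear interpolation; highest concentration if not reached. Definition used: TGI = concentration required for complete inhibition of growth.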

How the values were obtained:
Test in all cases: DTP human tumour cell line panel, 48 h
SF-268 CNS = test system: SF-268 CNS
BT-549 breast = test system: BT-549 breast
RXF 393 renal = test system: RXF 393 renal
NCI-H522 lung = test system: NCI-H522 lung
SF-539 CNS = test system: SF-539 CNS
SK-MEL-28 melanoma = test system: SK-MEL-28 melanoma
HOP-62 NSCLC = test system: HOP-62 NSCLC
SF-295 CNS = test system: SF-295 CNS
HCC-2998 colon = test system: HCC-2998 colon
RPMI-8226 leukemia = test system: RPMI-8226 leukemia
MALME-3M melanoma = test system: MALME-3M melanoma
CAKI-1 renal = test system: CAKI-1 renal
UO-31 renal = test system: UO-31 renal
EKVX NSCLC = test system: EKVX NSCLC

Structure (SMILES)	TGI (SF-268 CNS) [µM]	TGI (BT-549 breast) [µM]	TGI (RXF 393 renal) [µM]	TGI (NCI-H522 lung) [µM]	TGI (SF-539 CNS) [µM]	TGI (SK-MEL-28 melanoma) [µM]	TGI (HOP-62 NSCLC) [µM]	TGI (SF-295 CNS) [µM]	TGI (HCC-2998 colon) [µM]	TGI (RPMI-8226 leukemia) [µM]	TGI (MALME-3M melanoma) [µM]	TGI (CAKI-1 renal) [µM]	TGI (UO-31 renal) [µM]	TGI (EKVX NSCLC) [µM]
CCCCCCCCCCCCCCCCNc1ccn(C2CC(O)C(COC(c3ccccc3)(c3ccccc3)c3ccc(OC)cc3)O2)c(=O)n1 (stereo not drawn)	> 100	> 100	> 100	> 100	> 100	> 100	> 100	> 100	> 100	> 100	> 100	> 100	53.8	> 100
C(#CP(c1ccccc1)c1ccccc1)P(C#CP(c1ccccc1)c1ccccc1)c1ccccc1	> 100	> 100	> 100	> 100	> 100	> 100	> 100	97.6	> 100	> 100	> 100	> 100	> 100	> 100
COc1ccccc1C(=O)NCC1CCCN2CCCCC12 (stereo not drawn)	> 100	> 100	> 100	> 100	> 100	> 100	> 100	> 100	> 100	> 100	> 100	> 100	> 100	> 100
COc1ccccc1C1(c2c(OC)c(=O)c2=O)SCCCS1	> 100	> 100	> 100	> 100	> 100	> 100	> 100	> 100	> 100	> 100	> 100	> 100	> 100	> 100
Cc1ccc2c(c1)nc1n2C(N)=Nc2ccccc2S1	> 100	> 100	> 100	> 100	> 100	> 100	> 100	> 100	> 100	> 100	> 100	> 100	> 100	> 100
C(=Nc1ccc(-c2nc3ccccc3s2)cc1)c1ccc[nH]1	52.5	46.2	31.3	28	37.3	42.5	27.6	27.9	31.9	55.9	32.2	78.3	53.5	45.4
c1ccc2c(c1)cc1n2CCc2c-1[nH]c1ccccc21	> 10	> 10	> 10	> 10	> 10	> 10	> 10	> 10	> 10	> 10	> 10	> 10	> 10	> 10
Cc1cccc(CC(Cc2ccc(C)cc2C(=O)O)C(=O)O)c1 (stereo not drawn)	> 100	> 100	> 100	> 100	> 100	> 100	> 100	> 100	> 100	> 100	> 100	> 100	> 100	> 100
CCN1CCC(CNC(=O)c2ccc(N)cc2)N1CC (stereo not drawn)	> 100	> 100	> 100	> 100	> 100	> 100	> 100	> 100	> 100	> 100	> 100	> 100	> 100	> 100
O=c1c(Cc2ccc(Cl)cc2)nnc2sc(-c3ccc(-c4ccc(Cl)cc4Cl)o3)nn12	> 100	> 100	> 100	> 100	> 100	> 100	> 100	> 100	> 100	> 100	> 100	> 100	> 100	> 100
COc1cc(OC)c2c(c1)OC(c1cccnc1)C(c1ccccc1)C2=O (stereo not drawn)	> 100	> 100	> 100	> 100	> 100	> 100	> 100	> 100	> 100	> 100	> 100	> 100	> 100	> 100
CC(C)=CC[C@]12CCN(C)[C@H]1N(S(=O)(=O)c1ccccc1)c1ccccc12	> 100	> 100	> 71.7	41.8	> 100	> 100	> 77.6	> 100	> 61.4	> 73	> 100	> 100	> 100	> 63.9
CN(CCNC(=O)c1c[nH]c2c1Cc1ccccc1-2)CCNC(=O)c1c[nH]c2c1Cc1ccccc1-2	> 100	> 100	> 100	97	49.2	> 100	> 100	> 100	> 100	73.4	> 100	> 100	> 100	> 100
O=C1CN(c2cccc(Cl)c2)C(=O)CN1NCNN1CC(=O)N(c2cccc(Cl)c2)CC1=O	> 100	> 100	> 100	> 100	> 100	> 100	> 100	> 100	> 100	> 100	> 100	> 100	> 100	> 100
Brc1cccc(C2ON=C(c3ccccc3)N2C23CC4CC(CC(C4)C2)C3)c1 (stereo not drawn)	> 10	> 10	> 10	> 10	> 10	> 10	> 10	> 10	> 10	> 10	> 10	> 10	> 10	> 10
O=c1[nH]c(NCc2ccc(Cl)cc2)nc2nc[nH]c12	> 100	> 100	> 100	> 100	> 100	–	> 100	> 100	> 100	> 100	> 100	> 100	> 100	> 100
COc1ccc(NCC(=O)Nn2c(-c3ccccc3)nc3ccccc3c2=O)cc1	> 100	65.4	> 10	> 10	> 100	> 100	> 100	> 100	> 100	> 100	70.2	–	> 100	> 100
COC1(CC[C@@H](C)COC2OC(CO)C(O)C(O)C2O)O[C@H]2C[C@H]3[C@@H]4CC=C5C[C@@H](OC6OC(CO)C(O)C(OC7OC(CO)C(O)C(O)C7O)C6OC6OC(C)C(O)C(O)C6O)CC[C@]5(C)[C@H]4CC[C@]3(C)[C@H]2[C@@H]1C (stereo partly drawn)	26.4	31.8	19.5	15.3	7.11	12.4	24.3	11.3	10.6	> 88.3	9.29	12	9.53	35.3
Cc1ccc2nc(-c3ccc(C(C)(C)C)cc3)oc(=O)c2c1	70.7	57.3	88.5	35	40.6	62.1	68.4	49	27.8	48.9	53.9	39.6	70	69.8
CCOC(=O)/C=C(\C(=O)OCC)n1cc(C)c(=O)n(Cc2cnnn2COCCOC(C)=O)c1=O	38.5	16.3	13.2	2.91	6.89	31.5	55.6	69.3	30.7	18.5	3.42	8.06	27.5	24.6
O=C(Cn1c(C(=O)c2ccccc2)nc2ccccc21)c1ccccc1	> 100	> 100	> 100	> 100	> 100	> 100	> 100	> 100	> 100	> 100	> 100	> 100	> 100	> 100
OC1COC2CC(Nc3ccccn3)OC12 (stereo not drawn)	> 100	> 100	> 100	> 100	> 100	> 100	> 100	> 100	> 100	> 100	> 100	> 100	> 100	> 100
O=C(/C(=C\I)c1ccccc1)c1ccccc1	> 46.2	30.3	11.7	22.5	35.1	5.88	13.7	32.9	16.1	> 21.2	21.2	3.07	20.2	32.3
O=C(NO)NCCCl	> 100	> 100	> 100	> 100	> 100	–	> 100	> 100	> 100	> 100	> 100	> 100	> 100	> 100
